Laboratory results reported in paper PMC11242993, “Evaluation of the Therapeutic Potential of Sulfonyl Urea Derivatives as Soluble Epoxide Hydrolase (sEH) Inhibitors” (Molecules, 2024).
In brackets after ≈: the same amount, converted by molar mass.

Tests used:
C57BL/6J male mice [1] = assay: Hot plate model; assay type: in vivo; details: 10 mg/kg i.p.
Procedure: Thermal nociception in the hot plate test was assessed with a commercially available apparatus (Hotplate Analgesia Meter, Columbus Instruments) consisting of a metal plate to a constant temperature of 55.0 ± 0.1 °C. Mice were put into the hot plate testing instrument to adapt for at least 15 min. The device was connected to a manually operated timer that recorded the amount of time the mouse spent on the heated surface before showing signs of nociception (e.g., licked its paws or jumped), the cut-off time was 60 s. The baseline (basic pain threshold, the response was more than 25 s, and the jumping mice were excluded.) was calculated as the mean of three readings recorded before testing at intervals of 15 min. The time course of latency was then determined at 15, 30, 45, 60, 90, and 120 min after compound treatment. Data were analyzed as time-course curves of the percentage of maximum effect MPE% = (post drug latency − baseline latency) × 100/(cut-off time − baseline latency). C57BL/6J male mice obtained from The Jackson Laboratory (Bar Harbor, ME, USA) weighing 28 g were used for the hot plate test. Animal procedures were conducted following the rules and regulations of the Institutional Animal Care and Use Committee of the National Institute on Alcohol Abuse and Alcoholism (NIAAA) under the protocols of LPS-GK1.

[2] = In vivo pharmacokinetic experiment; parameters: species or system C57BL/6J mice; details: mice, 10 mg/kg; for Cmax (in words): oral
Procedure: Twenty 8–9-week-old male C57BL/6J mice were taken for the in vivo pharmacokinetic experiment. They were divided into four groups, each containing five mice. Each group was used for either oral or intraperitoneal administration of compound 4f or 15a. Both the compounds were reconstituted in 5% DMSO, 5% TWEEN 80 in saline water (pH = 7.4). The mice were orally and intraperitoneally administered compounds at 10 mg/kg dose. Blood samples were collected at 0, 0.5, 1, 2, 4, 6, and 24 h after administration of the compound, and serum was isolated with the compound. For the pharmacokinetic study, 10 μL of serum samples from mice were extracted with a 2:1 mixture of LC/MS-grade chloroform and methanol, followed by intermittent vortexing, and then centrifuged at 4000 rpm for 10 min at 4 °C. Thereafter, the supernatant was collected and analyzed by LC−MS/MS to measure the concentrations of compounds 4f and 15a in the serum.

[3] = Plasma protein binding (equilibrium dialysis), human; assay type: in vitro ADME; details: for fraction unbound at 5 h, 1 μM: plasma (non-diluted), pH 7.4, read-out: Plasma Protein Binding Human % of Bound Comp
Procedure: The assay was performed in a multiple-use 96-well dialysis unit (HTD96b dialyzer). Each individual well unit consisted of 2 chambers separated by a vertically aligned dialysis membrane of predetermined pore size (MWCO 12–14 kDa). An amount of 120 μL of non-diluted plasma spiked with the compound (1 μM, final DMSO concentration 1%) was added to one chamber, and the same volume of PBS buffer with pH 7.4 was added to the other chamber. The HTD96b dialyzer was covered with adhesive sealing film and incubated at 37 °C and shaken at 100 rpm for 5 h. For sample preparation, an aliquot of the content of each chamber was mixed with the same volume of the blank opposite matrix. To define the non-specific loss of the compound during this assay, a standard solution was created by mixing an aliquot of spiked plasma with a blank buffer without dialysis. Two aliquots of the standard solution were incubated at 37 °C and shaken at 100 rpm for 5 h (recovery samples). The other two aliquots were immediately diluted with acetonitrile and stored at 4 °C until LC–MS/MS analysis (stability samples). All samples were diluted 5-fold with 100% methanol with subsequent plasma protein sedimentation by centrifuging at 6000 rpm for 5 min. Supernatants were analyzed using the HPLC system coupled with a tandem mass spectrometer.

C57BL/6J male mice [4] = assay: Tail-flick reflex model; assay type: in vivo; details: single intraperitoneal injection at 10 mg/kg
Procedure: A tail-flick reflex test was performed as previously described. The parameters of the tail-flick instrument (7360, Ugo Basile Instruments, Varese, Italy) were set up to keep the baseline at 2.5–4.0 s. Mice were fixed and the part about 1.5–2 cm away from the tail of the mouse was aligned with the infrared emission hole of the instrument. […] Latencies of mice of less than 2 s or more than 5 s were excluded. […] The cut-off time in the tail-flick reflex test was set at 8 s to avoid sensitization and damage to the skin and to achieve the maximum possible effect (MPE%) = (measured value − basic value) × 100/(cut-off − basic value). C57BL/6J male mice obtained from The Jackson Laboratory (Bar Harbor, ME, USA) weighing 28 g were used for the tail-flick test. Animal procedures were conducted following the rules and regulations of the Institutional Animal Care and Use Committee of the National Institute on Alcohol Abuse and Alcoholism (NIAAA) under the protocols of LPS-GK1.

[5] = Aqueous (kinetic, nephelometric) solubility in PBS; assay type: physicochemical
Procedure: Aliquots of 5 µL of 20.00 mM, 10.00 mM, 5.00 mM, 2.50 mM, 1.25 mM, 0.63 mM, 0.31 mM, 0.16 mM DMSO stock solutions of the control (highly soluble 2′-deoxy-5-fluorouridine and insoluble raloxifen hydrochloride) and the test compounds were loaded in 96-well microplates with clear flat bottoms in duplicates. Then, 250 µL of PBS was dispensed into each well using a Multidrop Combi dispenser to reach the concentrations of 400.0 µM, 200.0 µM, 100.0 µM, 50.0 µM, 25.0 µM, 12.5 µM, 6.25 µM, 3.125 µM for each compound with 2% final DMSO. Then, the resulting solutions were incubated for 15 min at room temperature. The effective range of this assay is approximately 5–200 µM. The solubility of each compound was calculated using the dedicated fitting algorithm. The physical base of nephelometric titration fitting is based on the quick increase in turbidity when a concentration of the tested compound reaches its solubility level. An intersection of the regression line of the high-level turbidity points with the calculated baseline was plotted for each compound. The baseline is a linear regression line plotted for fully soluble control compound DOFU. Each concentration point signal of the test article was compared with the corresponding signal of DOFU. […]

Structure (SMILES)	analgesic effect in hot plate assay (C57BL/6J male mice [1])	Cmax (in words) [2]	compound stability in plasma during dialysis [3] [%]	fraction unbound at 5 h, 1 μM [3]	analgesic activity in tail-flick model (C57BL/6J male mice [4])	solubility at 15 min ([5]; PBS, pH 7.4, aqueous buffer, kinetic from dmso stock, read-out: Aq. Solubility pH = 7.4) [µg/mL]	aqueous solubility (in words) ([5]; pH 7.4)	half-life ([2]; male, C57BL/6J, mouse, serum, other: oral and intraperitoneal, oral and intraperitoneal administration, read-out: plasma half-life) [h]
O=C(NC12CC3CC(CC(C3)C1)C2)NS(=O)(=O)c1ccc2ccccc2c1 [Compound 4l]	none of the sEH inhibitors, including AUDA, showed any analgesic effect	promising Cmax value	99	< 0.001	–	–	–	–
O=C(NC12CC3CC(CC(C3)C1)C2)NS(=O)(=O)c1ccc(OC(F)(F)F)cc1 [Compound 4f]	none of the sEH inhibitors, including AUDA, showed any analgesic effect	better than that of 15a	99	< 0.001	significant efficacy	53 (≈ 127 µM)	moderate aqueous solubility	< 2
